Laboratory results published in patent US20230310427A1, “NEW THERAPEUTIC USE OF RILPIVIRINE” (UNIVERSITY OF SOUTH AUSTRALIA, priority 2020, published 2023).

Assays:
PC3 cells = test: Cell cycle analysis (flow cytometry); format: cell-based; conditions: 48 hour treatment
Description: (§1) The effect of Rilpivirine on cell cycle distribution in different cancer cell lines was evaluated by flow cytometric analysis. Briefly, cells were seeded in 6-well plates at a density of 6 × 10^4 cells/well. All plates were incubated overnight at 37° C. in a 5% CO2 incubator. Following the incubation, the test compounds (Rilpivirine (Ril) and comparators, Alisertib (Ali; a known Aurora A inhibitor) and Etravirine (Etra; 4-[[6-amino-5-bromo-2-[(4-cyanophenyl)amino]-4-pyrimidinyl]oxy]-3,5-dimethylbenzonitrile - a structurally similar NNRTI drug compound sold under the brand name Intelence® (Janssen Therapeutics)) were added to individual wells and the plates were incubated at same condition for 24 h, 48 h or 72 h. Subsequently, the medium was removed from the wells and transferred into fluorescence-activated cell sorting (FACS) tubes. The adherent cells remaining were trypsinised, re-suspended in media and transferred into the FACS tubes. Cells were centrifuged, fixed with cold 70% ethanol for 15 min and pelleted. The pelleted cells were then re-suspended in 200 µL propidium iodide (PI) solution (50 µg/mL propidium iodide, 0.1 mg/mL ribonuclease A, 0.1% sodium citrate, 0.1% triton X-100) and incubated in the dark for 1.5 h at room temperature. Following the incubation, 200 µL PBS was added. Samples were assessed using a flow cytometer (Cytoflex; Beckman Coulter Inc, Brea, CA, United States of America) and data were analysed using the Cytexpert software.

T47D cells = test: Cell cycle analysis (flow cytometry); format: cell-based; conditions: 48-hour treatment
Description: as §1

Aurora B kinase = biological target: T1, Aurora B kinase (Homo sapiens, UniProt Q96GD4); test: Kinase assay; format: biochemical; conditions: kinase inhibition profiling (FIG. 2), concentration not given
T1 construct: purchased Promega (ADP-Glo kits) or Reaction Biology Corporation / Eurofins discovery services (external)
T1 sequence (Q96GD4 whole entry): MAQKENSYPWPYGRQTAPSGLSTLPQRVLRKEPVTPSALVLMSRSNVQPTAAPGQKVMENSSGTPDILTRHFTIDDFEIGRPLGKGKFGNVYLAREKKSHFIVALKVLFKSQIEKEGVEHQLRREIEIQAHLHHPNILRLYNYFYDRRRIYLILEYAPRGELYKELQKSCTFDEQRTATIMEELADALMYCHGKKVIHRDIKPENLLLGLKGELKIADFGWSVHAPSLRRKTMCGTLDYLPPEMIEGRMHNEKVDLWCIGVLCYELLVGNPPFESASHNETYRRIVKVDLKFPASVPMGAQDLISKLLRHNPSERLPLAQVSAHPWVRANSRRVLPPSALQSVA
Description: (§2) The ability of compounds to inhibit kinases was measured using ADP-Glo^Tm assay kits (Promega, Madison, WI, United States of America) or externally using radioisotope based assays (Reaction Biology Corporation, Malvern, PA, United States of America and Eurofins discovery services, France). The ADP-Glo assay was performed as reported previously (Basnet SK et al., Mol Pharmacol 88(5):935-948, 2015).The assay plate was read for luminescence using Envision multi-label plate reader (PerkinElmer, Waltham, MA, United States of America). Half-maximal inhibition (IC50) values were determined from a plot of percent residual activity versus concentration of test compounds using GraphPad Prism software. Ki values were calculated from IC50 values using the Cheng-Prusoff equation: Ki= IC50/ [1 + ([ATP]/Km ATP)], where [ATP] is the ATP concentration used for the IC50 determination and Km ATP for each kinase is determined from an individual experiment.

Aurora A kinase = biological target: T2, Aurora A kinase (Homo sapiens, UniProt O14965); test: Kinase assay; format: biochemical; conditions: kinase inhibition profiling (FIG. 2), concentration not given
T2 construct: purchased Promega (ADP-Glo kits) or Reaction Biology Corporation / Eurofins discovery services (external)
T2 sequence (O14965 1-403): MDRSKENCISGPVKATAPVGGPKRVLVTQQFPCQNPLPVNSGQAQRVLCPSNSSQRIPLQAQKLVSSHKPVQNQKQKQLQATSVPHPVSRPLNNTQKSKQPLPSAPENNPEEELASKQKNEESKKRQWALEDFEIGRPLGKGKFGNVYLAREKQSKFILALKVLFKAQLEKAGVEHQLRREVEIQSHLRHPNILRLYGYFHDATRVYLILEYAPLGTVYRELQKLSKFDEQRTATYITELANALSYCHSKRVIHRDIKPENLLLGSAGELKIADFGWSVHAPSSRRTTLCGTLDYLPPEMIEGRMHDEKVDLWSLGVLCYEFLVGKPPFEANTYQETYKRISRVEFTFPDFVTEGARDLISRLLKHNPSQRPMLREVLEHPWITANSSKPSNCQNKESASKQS
Description: as §2

| SMILES | cell cycle arrest (PC3 cells; 10 µM) | cell cycle arrest (T47D cells; 10 µM) | inhibitory activity against Aurora B (Aurora B kinase) | inhibitory activity against Aurora A (Aurora A kinase) | cell cycle arrest (PC3 cells; p53 mutant) | cell cycle arrest (T47D cells; p53 mutant) |
| --- | --- | --- | --- | --- | --- | --- |
| Cc1cc(C#N)cc(C)c1Oc1nc(Nc2ccc(C#N)cc2)nc(N)c1Br [Etravirine, 4-[[6-amino-5-bromo-2-[(4-cyanophenyl)amino]-4-pyrimidinyl]oxy]-3,5-dimethylbenzonitrile] | did not induce G2/M arrest | no G2/M arrest | no inhibitory activity | no inhibitory activity |  |  |
| COc1cc(Nc2ncc3c(n2)-c2ccc(Cl)cc2C(c2c(F)cccc2OC)=NC3)ccc1C(=O)O [Alisertib] |  |  |  |  | induce G2/M arrest | arrest T47D breast cancer cells in G2/M phase |
